Data reported in patent US11613525B2 (CTXT PTY LIMITED, priority 2018, dated 2023).
pEC50: −log10 of the molar value. Where two headings read alike, the source gives them in different places.

Legend:
huSTING (HAQ) = huSTING (HAQ) (Homo sapiens (Human), UniProt Q86WV6, G230A/H232R/R293Q/R71H); experiment: THP-1 reporter cell line assay, THP-1 STING Lucia ISG cells; format: cell-based; conditions: THP-1 STING Lucia ISG cells, read-out: Cellular EC50 huSTING (HAQ)
huSTING (WT) = huSTING (WT) (Homo sapiens (Human), UniProt Q86WV6, H232R); experiment: THP-1 reporter cell line assay, THP-1-Dual KI-hSTING-R232 cells; format: cell-based; conditions: read-out: Cellular EC50 huSTING (WT)
[1] = modified method, top concentration 40 μM, pin tool, EnVision

Sequence of huSTING (WT) (Q86WV6 whole entry H232R): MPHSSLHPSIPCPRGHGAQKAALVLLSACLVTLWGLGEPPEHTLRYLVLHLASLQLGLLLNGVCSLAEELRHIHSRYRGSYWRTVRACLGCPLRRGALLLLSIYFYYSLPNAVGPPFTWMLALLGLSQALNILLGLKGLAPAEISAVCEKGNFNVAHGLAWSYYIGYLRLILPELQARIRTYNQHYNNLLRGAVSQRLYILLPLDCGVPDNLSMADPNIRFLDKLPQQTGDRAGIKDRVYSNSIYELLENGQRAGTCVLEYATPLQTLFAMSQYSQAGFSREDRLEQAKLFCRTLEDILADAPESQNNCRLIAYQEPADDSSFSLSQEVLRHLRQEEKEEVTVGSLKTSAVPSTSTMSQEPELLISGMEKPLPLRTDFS
Sequence of huSTING (HAQ) (Q86WV6 whole entry R71H/G230A/H232R/R293Q): as the sequence (Q86WV6 whole entry H232R) above, with R71H, G230A, R293Q counted along it

| Compound | pEC50 (huSTING (HAQ); 24 h, top concentration 50 μM) | pEC50 (huSTING (WT)) | pEC50 (huSTING (HAQ); [1]) |
| --- | --- | --- | --- |
| CCOC(=O)c1sc2ccc(F)c(F)c2c1COc1ccc(C(N)=O)cc1 [Example 15, Ethyl 3-((4-carbamoylphenoxy)methyl)-4,5-difluorobenzo[b]thiophene-2-carboxylate] | 5.62 | 5.59 | – |
| CCOC(=O)c1sc2ccc(C)c(Cl)c2c1COc1ccc(C(N)=O)cc1 [Example 17, Ethyl 3-((4-carbamoylphenoxy)methyl)-4-chloro-5-methylbenzo[b]thiophene-2-carboxylate] | 4.83 | < 4.30 | – |
| CCOC(=O)c1sc2cc(Cl)cc(F)c2c1COc1ccc(C(N)=O)cc1 [Example 19, Ethyl 3-((4-carbamoylphenoxy)methyl)-6-chloro-4-fluorobenzo[b]thiophene-2-carboxylate] | < 4.30 | < 4.30 | – |
| CCOC(=O)c1sc2cccc(Br)c2c1COc1ccc(C(N)=O)cc1 [Example 21, Ethyl 4-bromo-3-((4-carbamoylphenoxy)methyl)benzo[b]thiophene-2-carboxylate] | 6.32 | 6.24 | – |
| CCOC(=O)c1sc2cccnc2c1COc1ccc(C(N)=O)cc1 [Example 23, Ethyl 3-((4-carbamoylphenoxy)methyl)thieno[3,2-b]pyridine-2-carboxylate] | 5.12 | 4.77 | – |
| CCOC(=O)c1sc2cccc(Cl)c2c1COc1ccc(C(N)=O)c(F)c1 [Example 25, Ethyl 3-((4-carbamoyl-3-fluorophenoxy)methyl)-4-chlorobenzo[b]thiophene-2-carboxylate] | 5.80 | 5.85 | – |
| CCOC(=O)c1sc2cccc(Cl)c2c1COc1cc(F)c(C(N)=O)c(F)c1 [Example 27, Ethyl 3-((4-carbamoyl-3,5-difluorophenoxy)methyl)-4-chlorobenzo[b]thiophene-2-carboxylate] | < 4.30 | < 4.30 | – |
| CCOC(=O)c1sc2cccc(Cl)c2c1COc1ccc(C(N)=O)cc1OC [Example 29, Ethyl 3-((4-carbamoyl-2-methoxyphenoxy)methyl)-4-chlorobenzo[b]thiophene-2-carboxylate] | 5.57 | 5.19 | – |
| CCOC(=O)c1sc2cc(F)cc(F)c2c1COc1ccc(C(N)=O)cc1 [Example 31, Ethyl 3-((4-carbamoylphenoxy)methyl)-4,6-difluorobenzo[b]thiophene-2-carboxylate] | 5.17 | 5.16 | – |
| CCOC(=O)c1sc2cccc(OC)c2c1COc1ccc(C(N)=O)cc1 [Example 33, Ethyl 3-((4-carbamoylphenoxy)methyl)-4-methoxybenzo[b]thiophene-2-carboxylate] | 6.18 | 6.05 | – |
| CCOC(=O)c1sc2cccc(C(F)(F)F)c2c1COc1ccc(C(N)=O)cc1 [Example 35, Ethyl 3-((4-carbamoylphenoxy)methyl)-4-(trifluoromethyl)benzo[b]thiophene-2-carboxylate] | 6.18 | 5.89 | – |
| CCOC(=O)c1sc2cccc(Cl)c2c1COc1ccc(C(N)=O)cc1Cl [Example 37, Ethyl 3-((4-carbamoyl-2-chlorophenoxy)methyl)-4-chlorobenzo[b]thiophene-2-carboxylate] | 5.42 | 5.32 | – |
| CCOC(=O)c1sc2cccc(Cl)c2c1COc1c(Cl)cc(C(N)=O)cc1Cl [Example 39, Ethyl 3-((4-carbamoyl-2,6-dichlorophenoxy)methyl)-4-chlorobenzo[b]thiophene-2-carboxylate] | 5.83 | 5.75 | – |
| CCOC(=O)c1sc2cccc(Cl)c2c1COc1c(OC)cc(C(N)=O)cc1OC [Example 41, Ethyl 3-((4-carbamoyl-2,6-dimethoxyphenoxy)methyl)-4-chlorobenzo[b]thiophene-2-carboxylate] | 6.10 | 5.61 | – |
| CCOC(=O)c1sc2cccc(Cl)c2c1COc1ccc(C(N)=O)cc1C#N [Example 43, Ethyl 3-((4-carbamoyl-2-cyanophenoxy)methyl)-4-chlorobenzo[b]thiophene-2-carboxylate] | 5.87 | 5.42 | – |
| CCOC(=O)c1sc2cccc(Cl)c2c1COc1ccc(C(N)=O)nc1 [Example 45, Ethyl 3-(((6-carbamoylpyridin-3-yl)oxy)methyl)-4-chlorobenzo[b]thiophene-2-carboxylate] | 4.89 | 4.61 | – |
| CCOC(=O)c1sc2cccc(Cl)c2c1COc1ccc2c(N)noc2c1 [Example 47, Ethyl 3-(((3-aminobenzo[d]isoxazol-6-yl)oxy)methyl)-4-chlorobenzo[b]thiophene-2-carboxylate] | 4.73 | < 4.30 | – |
| CCOC(=O)c1sc2cccc(F)c2c1COc1ccc(C(N)=O)c(Cl)c1 [Example 49, Ethyl 3-((4-carbamoyl-3-chlorophenoxy)methyl)-4-fluorobenzo[b]thiophene-2-carboxylate] | 4.77 | 4.62 | – |

| Compound | pEC50 (huSTING (HAQ); 24 h, top concentration 50 μM) | pEC50 (huSTING (WT)) | pEC50 (huSTING (HAQ); [1]) |
| --- | --- | --- | --- |
| CCOC(=O)c1sc2cccc(F)c2c1COc1ccc(C(N)=O)c(C(F)(F)F)c1 [Example 51, Ethyl 3-((4-carbamoyl-3-(trifluoromethyl)phenoxy)methyl)-4-fluorobenzo[b]thiophene-2-carboxylate] | < 4.30 | < 4.30 | – |
| CCOC(=O)c1sc2cccc(F)c2c1COc1ccc(C(N)=O)c(C)c1 [Example 53, Ethyl 3-((4-carbamoyl-3-methylphenoxy)methyl)-4-fluorobenzo[b]thiophene-2-carboxylate] | < 4.30 | < 4.30 | – |
| CCOC(=O)c1sc2cccc(F)c2c1COc1c(F)cc(C(N)=O)cc1Br [Example 55, Ethyl 3-((2-bromo-4-carbamoyl-6-fluorophenoxy)methyl)-4-fluorobenzo[b]thiophene-2-carboxylate] | 5.44 | < 4.30 | – |
| CCOC(=O)c1sc2cccc(C3CC3)c2c1COc1ccc(C(N)=O)cc1 [Example 60, Ethyl 3-((4-carbamoylphenoxy)methyl)-4-cyclopropylbenzo[b]thiophene-2-carboxylate] | 6.08 | 4.32 | – |
| CCOC(=O)c1sc2cccc(C#N)c2c1COc1ccc(C(N)=O)cc1 [Example 62, Ethyl 3-((4-carbamoylphenoxy)methyl)-4-cyanobenzo[b]thiophene-2-carboxylate] | 6.02 | 5.78 | – |
| CCOC(=O)c1sc2cccc(Cl)c2c1COc1ccc(C(N)=O)c(F)c1F [Example 66, Ethyl 3-((4-carbamoyl-2,3-difluorophenoxy)methyl)-4-chlorobenzo[b]thiophene-2-carboxylate] | 5.10 | < 4.30 | – |
| CCOC(=O)c1sc2cccc(Cl)c2c1COc1c(F)cc(C(N)=O)cc1F [Example 68, Ethyl 3-((4-carbamoyl-2,6-difluorophenoxy)methyl)-4-chlorobenzo[b]thiophene-2-carboxylate] | 6.59 | 5.79 | – |
| CCOC(=O)c1sc2cccc(Cl)c2c1COc1c(C)cc(C(N)=O)cc1OC [Example 72, Ethyl 3-((4-carbamoyl-2-methoxy-6-methylphenoxy)methyl)-4-chlorobenzo[b]thiophene-2-carboxylate] | 5.13 | < 4.30 | – |
| CCOC(=O)c1sc2cccc(Cl)c2c1CNc1ccc(C(N)=O)cc1 [Example 75, Ethyl 3-(((4-carbamoylphenyl)amino)methyl)-4-chlorobenzo[b]thiophene-2-carboxylate] | 4.75 | < 4.30 | – |
| CCOC(=O)c1sc2cccc(C)c2c1COc1ccc(C(N)=O)cc1 [Example 77, Ethyl 3-((4-carbamoylphenoxy)methyl)-4-methylbenzo[b]thiophene-2-carboxylate] | 6.15 | 5.49 | – |
| CCOC(=O)c1sc2c(F)ccc(F)c2c1COc1c(F)cc(C(N)=O)cc1F [Example 79, Ethyl 3-((4-carbamoyl-2,6-difluorophenoxy)methyl)-4,7-difluorobenzo[b]thiophene-2-carboxylate] | 6.77 | 6.32 | – |
| CCOC(=O)c1sc2c(F)ccc(F)c2c1COc1ccc(C(N)=O)cc1 [Example 81, Ethyl 3-((4-carbamoylphenoxy)methyl)-4,7-difluorobenzo[b]thiophene-2-carboxylate] | 5.55 | 4.68 | – |
| CCOC(=O)c1sc2ccc(F)c(Cl)c2c1COc1ccc(C(N)=O)cc1 [Example 83, Ethyl 3-((4-carbamoylphenoxy)methyl)-4-chloro-5-fluorobenzo[b]thiophene-2-carboxylate] | 5.58 | < 4.30 | – |
| CCOC(=O)c1sc2ccc(F)c(Cl)c2c1COc1c(F)cc(C(N)=O)cc1F [Example 85, Ethyl 3-((4-carbamoyl-2,6-difluorophenoxy)methyl)-4-chloro-5-fluorobenzo[b]thiophene-2-carboxylate] | 5.79 | < 4.30 | – |
| CCOC(=O)c1sc2cccc(Br)c2c1COc1c(F)cc(C(N)=O)cc1F [Example 89, Ethyl 4-bromo-3-((4-carbamoyl-2,6-difluorophenoxy)methyl)benzo[b]thiophene-2-carboxylate] | – | 6.83 | 7.80 |
| CCOC(=O)c1sc2ccnc(Cl)c2c1COc1c(F)cc(C(N)=O)cc1F [Example 91, Ethyl 3-((4-carbamoyl-2,6-difluorophenoxy)methyl)-4-chlorothieno[3,2-c]pyridine-2-carboxylate] | – | 6.06 | 6.57 |
| CCOC(=O)c1sc2c(F)ccc(Cl)c2c1COc1c(F)cc(C(N)=O)cc1F [Example 92, Ethyl 3-((4-carbamoyl-2,6-difluorophenoxy)methyl)-4-chloro-7-fluorobenzo[b]thiophene-2-carboxylate] | – | 6.79 | 7.30 |
| CCOC(=O)c1sc2cccc(OCC)c2c1COc1c(F)cc(C(N)=O)cc1F [Example 94, Ethyl 3-((4-carbamoyl-2,6-difluorophenoxy)methyl)-4-ethoxybenzo[b]thiophene-2-carboxylate] | – | 5.77 | 6.41 |
